Test results published in publication PMC12048447, “PANTAX: a phase Ib clinical trial of the efflux pump inhibitor SCO-101 in combination with gemcitabine and nab-paclitaxel in non-resectable or metastatic pancreatic cancer” (Investigational New Drugs, 2025).

Experiment: PANTAX phase Ib: safety, DLT and MTD of SCO-101 with Gem and Nab
Type: in vivo
Protocol: ORR, clinical benefit rate (CBR), median progression free survival (mPFS), and mOS were included as secondary end points.
Patients were recruited at four centers, two in Denmark and two in Germany.
Study treatment is illustrated in Fig. 1. […] Chemotherapy with Gem and Nab was given days 6, 13, and 20 in each cycle. […] During the first cycle, patients received treatment with chemotherapy at a dose corresponding to 80% of the recommended dose, i.e., 100 mg/m^2 Nab and 800 mg/m^2 Gem given as infusions over 30 min. […] The dose of chemotherapy was further adjusted to the patient´s tolerability in accordance with the chemotherapy-product monographs. Standard antiemetics were allowed as was the use of granulocyte colony-stimulating factor (G-CSF) in case of treatment-induced neutropenia.
Toxicity was assessed at baseline and weekly at days 1, 6, 13, and 20 before each treatment.

[1] = 50 mg SCO-101 (cohort 1, 3 patients) + Gem/Nab, any CTC-AE grade
[2] = 50 mg SCO-101 (cohort 1, 3 patients) + Gem/Nab, grade ≥ 3
[3] = 100 mg SCO-101 (cohort 2, 3 patients) + Gem/Nab, any CTC-AE grade
[4] = 150 mg SCO-101 (cohort 3, 6 patients) + Gem/Nab, any CTC-AE grade
[5] = 150 mg SCO-101 (cohort 3, 6 patients) + Gem/Nab, grade ≥ 3
[6] = 200 mg SCO-101 (cohort 4, 6 patients) + Gem/Nab, any CTC-AE grade
[7] = 250 mg SCO-101 (cohort 5, 4 patients) + Gem/Nab, any CTC-AE grade
[8] = 250 mg SCO-101 (cohort 5, 4 patients) + Gem/Nab, grade ≥ 3
[9] = 22 patients, all dose levels, with Gem and Nab
[10] = sum of cohorts (22 patients) + Gem/Nab, any CTC-AE grade
[11] = sum of cohorts (22 patients) + Gem/Nab, grade ≥ 3

SMILES: O=C(Nc1cc(C(F)(F)F)cc(C(F)(F)F)c1)Nc1ccc(Br)cc1-c1nnn[nH]1 [SCO-101]
- Alopecia, patients with treatment-related AE [1]: 2
- Athralgia, patients with treatment-related AE [1]: 1
- Chills, patients with treatment-related AE [1]: 1
- Diarrhea, patients with treatment-related AE [1]: 3
- Dizziness, patients with treatment-related AE [1]: 1
- Fatigue, patients with treatment-related AE [1]: 3
- Headache, patients with treatment-related AE [1]: 1
- Hypertension, patients with treatment-related AE [1]: 1
- Nail disorder, patients with treatment-related AE [1]: 1
- Nausea, patients with treatment-related AE [1]: 3
- Pain, patients with treatment-related AE [1]: 2
- Paraestesia, patients with treatment-related AE [1]: 1
- Rash, patients with treatment-related AE [1]: 2
- ↑B-bilirubin, patients with treatment-related AE [1]: 2
- ↑B-lactate, patients with treatment-related AE [1]: 1
- ↓B-hemoglobin, patients with treatment-related AE [1]: 2
- ↓B-lymphocytes, patients with treatment-related AE [1]: 3
- ↓B-neutrophils, patients with treatment-related AE [1]: 3
- ↓B-thrombocytes, patients with treatment-related AE [1]: 3
- Chills, patients with treatment-related AE [2]: 1
- Hypertension, patients with treatment-related AE [2]: 1
- ↑B-lactate, patients with treatment-related AE [2]: 1
- ↓B-lymphocytes, patients with treatment-related AE [2]: 2
- ↓B-neutrophils, patients with treatment-related AE [2]: 3
- Alopecia, patients with treatment-related AE [3]: 2
- Candidiasis, patients with treatment-related AE [3]: 1
- Diarrhea, patients with treatment-related AE [3]: 3
- Dysgeusia, patients with treatment-related AE [3]: 1
- Fatigue, patients with treatment-related AE [3]: 1
- Nail disorder, patients with treatment-related AE [3]: 1
- Nausea, patients with treatment-related AE [3]: 3
- Oedema, patients with treatment-related AE [3]: 1
- Paraestesia, patients with treatment-related AE [3]: 2
- Rash, patients with treatment-related AE [3]: 2
- Stomatitis, patients with treatment-related AE [3]: 1
- ↑B-bilirubin, patients with treatment-related AE [3]: 1
- ↓B-hemoglobin, patients with treatment-related AE [3]: 1
- ↓B-neutrophils, patients with treatment-related AE [3]: 1
- Paraestesia, patients with treatment-related AE (100 mg SCO-101 (cohort 2, 3 patients) + Gem/Nab, grade ≥ 3): 1
- Alopecia, patients with treatment-related AE [4]: 2
- Athralgia, patients with treatment-related AE [4]: 1
- Candidiasis, patients with treatment-related AE [4]: 1
- Constipation, patients with treatment-related AE [4]: 1
- Diarrhea, patients with treatment-related AE [4]: 3
- Fatigue, patients with treatment-related AE [4]: 2
- Headache, patients with treatment-related AE [4]: 1
- Jaundice, patients with treatment-related AE [4]: 1
- Nausea, patients with treatment-related AE [4]: 2
- Pain, patients with treatment-related AE [4]: 1
- Rash, patients with treatment-related AE [4]: 1
- Stomatitis, patients with treatment-related AE [4]: 2
- TTP, patients with treatment-related AE [4]: 1
- Vomitting, patients with treatment-related AE [4]: 2
- ↑B-bilirubin, patients with treatment-related AE [4]: 2
- ↓B-hemoglobin, patients with treatment-related AE [4]: 4
- ↓B-neutrophils, patients with treatment-related AE [4]: 1
- ↓B-thrombocytes, patients with treatment-related AE [4]: 1
- Fatigue, patients with treatment-related AE [5]: 1
- Jaundice, patients with treatment-related AE [5]: 1
- TTP, patients with treatment-related AE [5]: 1
- ↑B-bilirubin, patients with treatment-related AE [5]: 1
- ↓B-hemoglobin, patients with treatment-related AE [5]: 2
- blood bilirubin in the DLT case (150 mg SCO-101, one patient): 24 µmol/L
- Alopecia, patients with treatment-related AE [6]: 4
- Constipation, patients with treatment-related AE [6]: 1
- Diarrhea, patients with treatment-related AE [6]: 2
- Dizziness, patients with treatment-related AE [6]: 1
- Dysgeusia, patients with treatment-related AE [6]: 1
- Fatigue, patients with treatment-related AE [6]: 4
- Headache, patients with treatment-related AE [6]: 1
- Jaundice, patients with treatment-related AE [6]: 1
- Loss of appetite, patients with treatment-related AE [6]: 2
- Nausea, patients with treatment-related AE [6]: 3
- Oedema, patients with treatment-related AE [6]: 1
- Pain, patients with treatment-related AE [6]: 2
- Paraestesia, patients with treatment-related AE [6]: 1
- Rash, patients with treatment-related AE [6]: 2
- Stomatitis, patients with treatment-related AE [6]: 4
- Vomitting, patients with treatment-related AE [6]: 1
- ↑B-bilirubin, patients with treatment-related AE [6]: 4
- ↓B-hemoglobin, patients with treatment-related AE [6]: 3
- ↓B-neutrophils, patients with treatment-related AE [6]: 1
- ↓B-thrombocytes, patients with treatment-related AE [6]: 2
- ↓B-neutrophils, patients with treatment-related AE (200 mg SCO-101 (cohort 4, 6 patients) + Gem/Nab, grade ≥ 3): 1
- Candidiasis, patients with treatment-related AE [7]: 1
- Constipation, patients with treatment-related AE [7]: 1
- Dysgeusia, patients with treatment-related AE [7]: 1
- Fatigue, patients with treatment-related AE [7]: 2
- Jaundice, patients with treatment-related AE [7]: 1
- Nausea, patients with treatment-related AE [7]: 2
- Paraestesia, patients with treatment-related AE [7]: 3
- Rash, patients with treatment-related AE [7]: 1
- ↑B-bilirubin, patients with treatment-related AE [7]: 2
- ↓B-hemoglobin, patients with treatment-related AE [7]: 1
- ↓B-neutrophils, patients with treatment-related AE [7]: 1
- ↓B-thrombocytes, patients with treatment-related AE [7]: 2
- ↓B-neutrophils, patients with treatment-related AE [8]: 1
- ↓B-thrombocytes, patients with treatment-related AE [8]: 2
- cases of clinical jaundice associated with bilirubin elevation (22 patients, all dose levels): three
- patients with SAEs (nineteen SAEs) (22 patients, all dose levels): 11 patients
- suspected unexpected serious adverse reactions (SUSARs) (22 patients, all dose levels): No suspected unexpected serious adverse reactions
- cases with elevation of blood bilirubin [9]: 55%
- patients with a SCO-101-related AE grade 4 (thrombocytopenia) [9]: 9%
- maximum tolerated dose (MTD) (SCO-101 daily for 6 days, bi-weekly schedule, with 80% dose of Gem and Nab, PDAC patients): 200 mg
- dose-limiting toxicities (DLTs), first cycle (dose level 3, 150 mg SCO-101, six patients, with Gem and Nab): One
- dose-limiting toxicities (DLTs), first cycle (dose level 4, 200 mg SCO-101, with Gem and Nab): No DLTs
- dose-limiting toxicities (DLTs), first cycle (dose level 5, 250 mg SCO-101, thrombocytopenia AE grade 4, with Gem and Nab): two
- time to resolution of bilirubin elevation (not accompanied by biochemical hepatotoxicity): ≤ 1 week
- SAEs deemed related to SCO-101 (of nineteen SAEs, transiently increased blood bilirubin AE grade 3 at 150 mg SCO-101): one
- Alopecia, patients with treatment-related AE [10]: 10
- Athralgia, patients with treatment-related AE [10]: 2
- Candidiasis, patients with treatment-related AE [10]: 3
- Chills, patients with treatment-related AE [10]: 1
- Constipation, patients with treatment-related AE [10]: 3
- Diarrhea, patients with treatment-related AE [10]: 11
- Dizziness, patients with treatment-related AE [10]: 2
- Dysgeusia, patients with treatment-related AE [10]: 3
- Fatigue, patients with treatment-related AE [10]: 12
- Headache, patients with treatment-related AE [10]: 3
- Hypertension, patients with treatment-related AE [10]: 1
- Jaundice, patients with treatment-related AE [10]: 3
- Loss of appetite, patients with treatment-related AE [10]: 2
- Nail disorder, patients with treatment-related AE [10]: 2
- Nausea, patients with treatment-related AE [10]: 13
- Oedema, patients with treatment-related AE [10]: 2
- Pain, patients with treatment-related AE [10]: 5
- Paraestesia, patients with treatment-related AE [10]: 7
- Rash, patients with treatment-related AE [10]: 8
- Stomatitis, patients with treatment-related AE [10]: 7
- TTP, patients with treatment-related AE [10]: 1
- Vomitting, patients with treatment-related AE [10]: 3
- ↑B-lactate, patients with treatment-related AE [10]: 1
- ↓B-hemoglobin, patients with treatment-related AE [10]: 11
- ↓B-lymphocytes, patients with treatment-related AE [10]: 3
- ↓B-neutrophils, patients with treatment-related AE [10]: 7
- ↓B-thrombocytes, patients with treatment-related AE [10]: 8
- Chills, patients with treatment-related AE [11]: 1
- Fatigue, patients with treatment-related AE [11]: 1
- Hypertension, patients with treatment-related AE [11]: 1
- Jaundice, patients with treatment-related AE [11]: 1
- Paraestesia, patients with treatment-related AE [11]: 1
- TTP, patients with treatment-related AE [11]: 1
- ↑B-lactate, patients with treatment-related AE [11]: 1
- ↓B-hemoglobin, patients with treatment-related AE [11]: 2
- ↓B-lymphocytes, patients with treatment-related AE [11]: 2
- ↓B-neutrophils, patients with treatment-related AE [11]: 5
- ↓B-thrombocytes, patients with treatment-related AE [11]: 2
